Experimental data: ChEMBL document CHEMBL3822445, “Histone demethylating agents as potential S-adenosyl-l-methionine-competitors” (Medchemcomm, 2016)
Active and inactive are the calls of the source. The calls are words filed in the database; no cut-off is given here.

Tests used:
[1] = Antiproliferative activity against human Ovarian cancer LA#83 cells assessed as cell survival at 20 uM after 72 hrs by MTT assay relative to control; type: functional; conditions: read-out: Survival
[2] = Antiproliferative activity against human Ovarian cancer DC#110 cells assessed as cell survival at 20 uM after 72 hrs by MTT assay relative to control; type: functional; conditions: read-out: Survival
[3] = Antiproliferative activity against human Ovarian cancer LA#110 cells assessed as cell survival at 20 uM after 72 hrs by MTT assay relative to control; type: functional; conditions: read-out: Survival
[4] = Antiproliferative activity against human Ovarian cancer DC#83 cells assessed as cell survival at 20 uM after 72 hrs by MTT assay relative to control; type: functional; conditions: read-out: Survival
[5] = system: MCF7; assay: Inhibition of DNA methylation in human MCF7 cells assessed as decrease in methylation of RARbeta DNA by qPCR method; type: cell-based

SMILES | viability at 20 µM [1] [%] | viability at 20 µM [2] [%] | viability at 20 µM [3] [%] | viability at 20 µM [4] [%] | inhibition [5]
C#Cc1cccc(Nc2ncnc3cc(OCCOC)c(OCCOC)cc23)c1 [ERLOTINIB] | 24.7 | 75.3 | 27.7 | 94.5 | 
Cc1nc(Nc2ncc(C(=O)Nc3c(C)cccc3Cl)s2)cc(N2CCN(CCO)CC2)n1 [DASATINIB] | 38.3 | 58.7 | 20.5 | 73.1 | 
CN1C(=O)[C@@]23C[C@]4([C@]56C[C@@]78SS[C@@](CO)(C(=O)N7[C@H]5Nc5ccccc56)N(C)C8=O)c5ccccc5N[C@@H]4N2C(=O)[C@]1(CO)SS3 [CHAETOCIN] | -3.25 | -4.22 | -2.63 | 67.8 | Active
N[C@@H]1C[C@H]1c1ccccc1.N[C@H]1C[C@@H]1c1ccccc1 [TRANYLCYPROMINE] | 77.5 | 93.6 | 60.6 | 102 | 
C#CCN(C)Cc1ccccc1 [PARGYLINE] | 77.7 | 59.1 | 85 | 96.7 | 
CCN(CC)CCNC(=O)c1c(C)[nH]c(/C=C2\C(=O)Nc3ccc(F)cc32)c1C [SUNITINIB] | 9.8 | 54.2 | 2.6 | 73.7 | 
